Data reported in US8765809B2, “Ester derivative and use thereof” (Ajinomoto Co., Inc., priority 2006, dated 2014).

Experiments:
[1] = tested on: auricle of hairless mouse; experiment: Measurement of external blood circulation enhancing action: vasodilatory effect (red spots) after application to the ear; format: in vivo, hairless mouse (HR-1, female); design: key to Vasodilatory effect for hairless mouse (red spots) / Vasodilatory effect on hairless mouse (red spots): O: clear red spots is confirmed; Δ: weak red spots is confirmed; x: no development of red spots; conditions: for vasodilatory / blood circulation enhancing effect, summary in words: summary of Tables 2 to 4
Source text: The compound of each Example, capsinoid derivative and capsaicin were compared for vasodilatory effect using auricle of hairless mouse. A sample was applied to the right ear of hairless mouse (HR-1, female), and a control was applied to the left ear. […]

[2] = Solubility of sample in liquid paraffin (note to Table 2); format: physicochemical; conditions: 5 wt % in liquid paraffin
[3] = Stability of compound: recovery rate (isolation yield) after contact with silica gel (PTLC); format: physicochemical; conditions: for recovery at 30 min: PTLC, silica gel stirred with ethyl acetate 30 min, read-out: isolation yield (recovery rate) after PTLC, taken as stability upon contact with silica gel; for stability upon contact with silica gel: isolation and purification by PTLC
Description: As mentioned above, the reaction yields of the compounds of respective Examples were determined by applying the products obtained by a condensation reaction to PTLC and stirring the silica gel containing the object compound with ethyl acetate for 30 min, followed by filtration and concentration under reduced pressure. Since the condensation reaction proceeds at a conversion rate of not less than 90% for all compounds, the recovery rate (yield) of each compound is considered to reflect stability upon contact of the compound with the silica gel.
Using vanillyl alcohol (1.70 g, 11.0 mmol) instead of homovanillyl alcohol, and n-decanoic acid (1.72 g, 10 mmol) instead of 8-methylnonanoic acid in Example 1, similar reaction was performed. The residue was purified by PTLC to find that the yield of the obtained vanillyl decanoate was 1.33 g (4.31 mmol, 43.1%), and vanillyl decanoate was decomposed (i.e., unstabilized) by the contact with silica gel.

[4] = 5 wt % (liquid paraffin), first column of Table 2
[5] = application of 5 wt % in liquid paraffin

| Compound | Vasodilatory effect on hairless mouse (red spots) ([1]; 5 wt % (ethanol)) | weak red spots were observed at, time after application ([1]; 5 wt % (ethanol)) | Vasodilatory effect for hairless mouse (red spots) [1, 4] | vasodilatory / blood circulation enhancing effect, summary in words [1] | solubility (note, words) [2] | recovery at 30 min [3] | stability upon contact with silica gel [3] | blood circulation enhancing effect (note, words) [1, 5] | red spots disappeared in [1, 5] | red spots were observed at, time after application ([1]; 5 wt % (ethanol)) | red spots at 1 hr after application ([1]; 5 wt % (ethanol), 1 hr later) | Vasodilatory effect for hairless mouse (red spots) ([1]; 5 wt % (liquid paraffin) as printed, second column of Table 2) |
| --- | --- | --- | --- | --- | --- | --- | --- | --- | --- | --- | --- | --- |
| COc1cc(CCOC(=O)CCCC(C)C)ccc1O [compound I-3, homovanillyl 5-methylhexanoate] | Δ | Weak red spots were observed at 20 min | x | weak blood circulation enhancing effect | sparingly soluble, thus red | – | – | – | – | – | – | – |
| COc1cc(CCOC(=O)CCCCCCC(C)C)ccc1O [compound I, homovanillyl 8-methylnonanoate] | – | – | Δ | weak blood circulation enhancing effect | – | 93.2% | far stabler than vanillyl decanoate | effect was weak and | disappeared in 1 hr | – | – | – |
| COc1cc(CCOC(=O)CCCCCC(C)C)ccc1O [compound I-1, homovanillyl 7-methyloctanoate] | Δ | Weak red spots were observed at 20 min | x | weak blood circulation enhancing effect | sparingly soluble, thus red | – | – | – | – | – | – | – |
| COc1cc(CCOC(=O)CCCCC(C)C)ccc1O [compound I-2, homovanillyl 6-methylheptanoate] | Δ | Weak red spots were observed at 20 min | x | weak blood circulation enhancing effect | sparingly soluble, thus red | – | – | – | – | – | – | – |
| CCCCCCCCCC(=O)OCc1ccc(O)c(OC)c1 [vanillyl decanoate, reference compound] | – | – | – | – | – | 43.1% | decomposed | – | – | – | – | – |
| COc1cc(CCC(=O)OCCCCC(C)C)ccc1O [compound L-3, 5-methylhexyl 3-(4-hydroxy-3-methoxyphenyl)propionate] | ∘ | – | ∘ | potent vasodilatory effect | – | – | – | – | spots disappeared in 1 hr | Red spots were observed at 5 min | thin red spots remained. L-4 showed | Δ |
